Reference: patent US4439426A, “Semisynthetic macrolidic antibiotics, intermediate compounds for their preparation and related pharmaceutical compositions containing them” (priority 1981, dated 1984)
Converted amounts (≈) assume the structure as drawn.

What was measured:
[1] = test system: Micrococcus luteus ATCC 9341 LRP 6; test: Bacteriostatic power in solid medium (MIC); type: cell-based; settings: Micrococcus luteus, ATCC9341; solid medium; read-out: Minimum inhibiting concentration
Method in brief: (§1)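 Reported figure: the lowest concentration that inhibits bacterial growth (bacteriostatic MIC). Organisms tested include aerobes and anaerobes of both Gram classes.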

[2] = test system: Streptococcus faecalis LRP 7; test: Bacteriostatic power in solid medium (MIC); type: cell-based; settings: Enterococcus faecalis, LRP7; solid medium; read-out: Minimum inhibiting concentration
Method in brief: as §1

[3] = test system: Fusobacteriumnecrophroum ATCC 27852 LRP 210; test: Bacteriostatic power in solid medium (MIC); type: cell-based; settings: solid medium; anaerobic; read-out: Minimum inhibiting concentration
Method in brief: as §1

[4] = test system: Corynebacterium diphteriae LRP 24; test: Bacteriostatic power in solid medium (MIC); type: cell-based; settings: Corynebacterium, LRP24; solid medium; read-out: Minimum inhibiting concentration
Method in brief: as §1

[5] = test system: Shigella sonnei LRP 5; test: Bacteriostatic power in solid medium (MIC); type: cell-based; settings: LRP5, read-out: Minimum inhibiting concentration
Method in brief: as §1

[6] = test system: Escherichia coli LRP 50; test: Bacteriostatic power in solid medium (MIC); type: cell-based; settings: Escherichia coli, LRP50; solid medium; read-out: Minimum inhibiting concentration
Method in brief: as §1

[7] = test system: Bacteroides fragilis ATCC 23745 LRP 205; test: Bacteriostatic power in solid medium (MIC); type: cell-based; settings: Bacteroides fragilis, ATCC23745; solid medium; anaerobic; read-out: Minimum inhibiting concentration
Method in brief: as §1

[8] = test system: Proteus vulgaris ATCC 6380 LRP 13; test: Bacteriostatic power in solid medium (MIC); type: cell-based; settings: Proteus vulgaris, ATCC6380; solid medium; read-out: Minimum inhibiting concentration
Method in brief: as §1

[9] = test system: Haemophilus influenzae ATCC 19418 LRP 213; test: Bacteriostatic power in solid medium (MIC); type: cell-based; settings: Haemophilus influenzae, ATCC19418; solid medium; read-out: Minimum inhibiting concentration
Method in brief: as §1

[10] = test system: Staphylococcus aureus ATCC 6538P LRP 39; test: Bacteriostatic power in solid medium (MIC); type: cell-based; settings: Staphylococcus aureus, ATCC6538P; solid medium; read-out: Minimum inhibiting concentration
Method in brief: as §1

[11] = test system: Mycoplasma hominis I ATCC 14027 LRP 211; test: Bacteriostatic power in solid medium (MIC); type: cell-based; settings: Metamycoplasma hominis, ATCC14027; solid medium; read-out: Minimum inhibiting concentration
Method in brief: as §1

[12] = test system: Streptococcus pyogenes ATCC 8668 LRP 197; test: Bacteriostatic power in solid medium (MIC); type: cell-based; settings: Streptococcus pyogenes, ATCC8668; solid medium; read-out: Minimum inhibiting concentration
Method in brief: as §1

[13] = test system: Micrococcus luteus ATCC 15957 LRP 193; test: Bacteriostatic power in solid medium (MIC); type: cell-based; settings: Micrococcus luteus, ATCC15957; solid medium; Erythromycin resistant; read-out: Minimum inhibiting concentration
Method in brief: as §1

[14] = test system: Streptococcus pyogenes ATCC 8668 LRP 34; test: Bacteriostatic power in solid medium (MIC); type: cell-based; settings: Streptococcus pyogenes, ATCC8668; solid medium; read-out: Minimum inhibiting concentration
Method in brief: as §1

[15] = test system: Streptococcus pneumoniae ATCC 6303 LRP 53; test: Bacteriostatic power in solid medium (MIC); type: cell-based; settings: Streptococcus pneumoniae, ATCC6303; solid medium; read-out: Minimum inhibiting concentration
Method in brief: as §1

[16] = test system: Acholeplasma laidlawii ATCC 23206 LRP 204; test: Bacteriostatic power in solid medium (MIC); type: cell-based; settings: Acholeplasma laidlawii, ATCC23206; solid medium; read-out: Minimum inhibiting concentration
Method in brief: as §1

[17] = test system: Streptococcus faecalis subsp. zymogenes ATCC 12958 LRP 61; test: Bacteriostatic power in solid medium (MIC); type: cell-based; settings: Enterococcus faecalis, ATCC12958; solid medium; read-out: Minimum inhibiting concentration
Method in brief: as §1

[18] = test system: Klelsiella pneumoniae LRP 54; test: Bacteriostatic power in solid medium (MIC); type: cell-based; settings: solid medium; read-out: Minimum inhibiting concentration
Method in brief: as §1

[19] = test system: Bacillus subtilis LRP 25; test: Bacteriostatic power in solid medium (MIC); type: cell-based; settings: Bacillus subtilis, LRP25; solid medium; read-out: Minimum inhibiting concentration
Method in brief: as §1

[20] = test system: Staphylococcus aureus ATCC 14154 LRP 78; test: Bacteriostatic power in solid medium (MIC); type: cell-based; settings: Staphylococcus aureus, ATCC14154; solid medium; Erythromycin resistant; read-out: Minimum inhibiting concentration
Method in brief: as §1

[21] = test system: Staphylococcus aureus ATCC 6538P LRP 14; test: Bacteriostatic power in solid medium (MIC); type: cell-based; settings: Staphylococcus aureus, ATCC6538P; solid medium; Penycilline resistant; read-out: Minimum inhibiting concentration
Method in brief: as §1

[22] = test system: Neisseria gonorrhoeae ATCC 19424 LRP 214; test: Bacteriostatic power in solid medium (MIC); type: cell-based; settings: Neisseria gonorrhoeae, ATCC19424; solid medium; read-out: Minimum inhibiting concentration
Method in brief: as §1

[23] = test system: Streptococcus pneumoniae ATCC 6303 LRP 35; test: Bacteriostatic power in solid medium (MIC); type: cell-based; settings: Streptococcus pneumoniae, ATCC6303; solid medium; read-out: Minimum inhibiting concentration
Method in brief: as §1

[24] = test system: Pseudomonas aeruginosa LRP 9; test: Bacteriostatic power in solid medium (MIC); type: cell-based; settings: Pseudomonas aeruginosa, LRP9; solid medium; read-out: Minimum inhibiting concentration
Method in brief: as §1

[25] = test system: Streptococcus pneumoniae ATCC 6303 LRP 52; test: Bacteriostatic power in solid medium (MIC); type: cell-based; settings: Streptococcus pneumoniae, ATCC6303; solid medium; read-out: Minimum inhibiting concentration
Method in brief: as §1

[26] = test system: Clostridium perfrigens ATCC 3624 LRP 206; test: microbe, parasite or virus in culture; type: cell-based; settings: ATCC3624, solid medium, anaerobic, read-out: Minimum inhibiting concentration
Method in brief: as §1

[27] = test system: Salmonella typhy LRP 8; test: microbe, parasite or virus in culture; type: cell-based; settings: LRP8, solid medium, read-out: Minimum inhibiting concentration
Method in brief: as §1

[28] = Stability in acidic environment at 25° C. (half-life of initial microbiological activity); type: physicochemical; settings: aqueous solution
Description: Stability in acidic environnment at 25° C. of the novel
Note: t 1/2 represents the time for reducing to one half the initial powe
of the antibiotic determined by microbiological method through diffusion
on a plate using the test stock Microccocus luteus (Sarcina lutea) ATCC

[29] = test system: Corynebacterium diphteriae LRP 24; test: Bacteriostatic power in liquid medium (MIC); type: cell-based; settings: Corynebacterium, LRP24; liquid medium; read-out: Minimum inhibiting concentration
Method in brief: as §1

[30] = test system: Staphylococcus aureus ATCC 6538 P LRP 39; test: Bacteriostatic power in liquid medium (MIC); type: cell-based; settings: Staphylococcus aureus, ATCC6538; liquid medium; read-out: Minimum inhibiting concentration
Method in brief: as §1

[31] = test system: Streptococcus pyogenes ATCC 8668 LRP 34; test: Bacteriostatic power in liquid medium (MIC); type: cell-based; settings: Streptococcus pyogenes, ATCC8668; liquid medium; read-out: Minimum inhibiting concentration
Method in brief: as §1

[32] = test system: Streptococcus pneumoniae ATCC 6303 LRP 35; test: Bacteriostatic power in liquid medium (MIC); type: cell-based; settings: Streptococcus pneumoniae, ATCC6303; liquid medium; read-out: Minimum inhibiting concentration
Method in brief: as §1

[33] = test system: Streptococcus faecalis subs. zymogenes ATCC 12958 LRP 61; test: Bacteriostatic power in liquid medium (MIC); type: cell-based; settings: Enterococcus faecalis, ATCC12958; liquid medium; read-out: Minimum inhibiting concentration
Method in brief: as §1

[34] = test system: Corynebacterium diphteriae LRP 24; test: Minimum bactericidal concentration (MBC); type: cell-based
Description: (§2) the bacterial power, expressed as the minimum bactericidal power (MBC) against some Gram positive aerobic stocks (table 5).

[35] = test system: Staphylococcus aureus ATCC 6538 P LRP 39; test: Minimum bactericidal concentration (MBC); type: cell-based
Description: as §2

[36] = test system: Streptococcus pyogenes ATCC 8668 LRP 34; test: Minimum bactericidal concentration (MBC); type: cell-based
Description: as §2

[37] = test system: Streptococcus pneumoniae ATCC 6303 LRP 35; test: Minimum bactericidal concentration (MBC); type: cell-based
Description: as §2

[38] = test system: Streptococcus faecalis subs. zymogenes LRP 61; test: Minimum bactericidal concentration (MBC); type: cell-based
Description: as §2

CC[C@H]1OC(=O)[C@H](C)[C@@H](O[C@H]2C[C@@](C)(OC)[C@@H](O)[C@H](C)O2)[C@H](C)[C@@H](O[C@@H]2O[C@H](C)C[C@H](N(C)C)[C@H]2O)[C@](C)(O)C[C@](C)(F)C(=O)[C@H](C)[C@@H](O)[C@H]1C [P-80203, (8S)-8-fluoroerythromycin B]
MIC [1]: 0.012 µg/mL (≈ 0.0163 µM)
MIC [2]: 0.195 µg/mL (≈ 0.265 µM)
MIC [3]: 3.12 µg/mL (≈ 4.24 µM)
MIC [4]: 0.006 µg/mL (≈ 0.00815 µM)
MIC [5]: 25 µg/mL (≈ 34 µM)
MIC [6]: 25 µg/mL (≈ 34 µM)
MIC [7]: 0.195 µg/mL (≈ 0.265 µM)
MIC [8]: 25 µg/mL (≈ 34 µM)
MIC [9]: 6.25 µg/mL (≈ 8.49 µM)
MIC [10]: 0.097 µg/mL (≈ 0.132 µM)
MIC [11]: 25 µg/mL (≈ 34 µM)
MIC [12]: 0.049 µg/mL (≈ 0.0666 µM)
MIC [13]: 25 µg/mL (≈ 34 µM)
MIC [14]: 0.024 µg/mL (≈ 0.0326 µM)
MIC [15]: 0.024 µg/mL (≈ 0.0326 µM)
MIC [16]: 0.195 µg/mL (≈ 0.265 µM)
MIC [17]: 0.195 µg/mL (≈ 0.265 µM)
MIC [18]: 25 µg/mL (≈ 34 µM)
MIC [19]: 0.049 µg/mL (≈ 0.0666 µM)
MIC [20]: 25 µg/mL (≈ 34 µM)
MIC [21]: 0.097 µg/mL (≈ 0.132 µM)
MIC [22]: 0.097 µg/mL (≈ 0.132 µM)
MIC [23]: 0.049 µg/mL (≈ 0.0666 µM)
MIC [24]: 25 µg/mL (≈ 34 µM)
MIC [25]: 0.024 µg/mL (≈ 0.0326 µM)
MIC [26]: 0.39 µg/mL (≈ 0.53 µM)
MIC [27]: 25 µg/mL (≈ 34 µM)
half-life ([28]; pH 2): 3 h
half-life ([28]; pH 3): 45 h
MIC [29]: 0.012 µg/mL (≈ 0.0163 µM)
MIC [30]: 0.097 µg/mL (≈ 0.132 µM)
MIC [31]: 0.024 µg/mL (≈ 0.0326 µM)
MIC [32]: 0.049 µg/mL (≈ 0.0666 µM)
MIC [33]: 0.39 µg/mL (≈ 0.53 µM)
MBC/MIC [34]: 4
MBC ([34]; Corynebacterium, LRP24, read-out: Minimum bactericidal concentration (MBC)): 0.049 µg/mL (≈ 0.0666 µM)
MBC/MIC [35]: 32
MBC ([35]; Staphylococcus aureus, ATCC6538, read-out: Minimum bactericidal concentration (MBC)): 3.12 µg/mL (≈ 4.24 µM)
MBC/MIC [36]: 8
MBC ([36]; Streptococcus pyogenes, ATCC8668, read-out: Minimum bactericidal concentration (MBC)): 0.195 µg/mL (≈ 0.265 µM)
MBC/MIC [37]: 1
MBC ([37]; Streptococcus pneumoniae, ATCC6303, read-out: Minimum bactericidal concentration (MBC)): 0.049 µg/mL (≈ 0.0666 µM)
MBC/MIC [38]: 8
MBC ([38]; Enterococcus faecalis, read-out: Minimum bactericidal concentration (MBC)): 3.12 µg/mL (≈ 4.24 µM)
